The data set is described as follows: In vitro release of solid steroid from Carb-S/PEG-DA crosslinked (CARBYLAN-SX) gels into PBS. The format is physicochemical. As to conditions: solid drug in gel, 37° C., after 72 hours of incubation. As to the method: A 1.75% (w/v) solution of the Carb-S (Example 2) was prepared using deionized water and the pH was adjusted to 7.4. […] A 4% (w/v) polyethylene glycol diacrylate (PEG-DA) [Mw=3400] solution was prepared using deionized water and the pH was adjusted to 7.4. […] After vortexing the mixture, 0.2 mL of the mixture was added to a 15 mL plastic centrifuge tube. […] The samples were kept at 37° C. by placing the shaker in an incubation oven that was set at 37° C. At specific intervals (24 hrs), the PBS buffer supernatant was removed from the tube and the steroid concentration in the PBS buffer was determined using UV absorption spectroscopy. […] 10 mL fresh PBS buffer was added to each tube and the tubes were returned to the shaker. This gelation and release testing was repeated in a similar manner using solid beclamethasone dipropionate (10 mg). […] Controlled Release, 1 (2000)).

As to `CCC(=O)OCC(=O)[C@@]1(OC(=O)CC)[C@@H](C)C[C@H]2[C@@H]3CCC4=CC(=O)C=C[C@]4(C)[C@@]3(Cl)[C@@H](O)C[C@@]21C` [beclomethasone diproprionate], the “Drug detected (released) from the CARBYLAN-SX polymer matrix” value is given as “less than 5%”.
